Consider six compounds from ChEMBL document CHEMBL4842306, “Pentadecaibins I-V: 15-Residue Peptaibols Produced by a Marine-Derived Trichoderma sp. of the Harzianum Clade” (J Nat Prod, 2021).

The test system of one experiment is KB. Nature of the experiment: Cytotoxicity against human KB cells assessed as cell viability after 72 hrs by MTT assay. In kind it is functional, cell-based. A general note: Tetrazolium dyes change colour on reduction, which living cells bring about.
Another experiment relates to Staphylococcus aureus. Kind of experiment: Antibacterial activity against Staphylococcus aureus CIP53.156 assessed as inhibition of microbial growth incubated for 24 hrs by spectrophotometry. The experiment is classed as functional.
A further experiment concerns Escherichia coli. Nature of the experiment: Antibacterial activity against Escherichia coli CIP54.8T assessed as inhibition of microbial growth incubated for 24 hrs by spectrophotometry. The experiment is classed as functional.
The subject of another experiment is Candida albicans. Nature of the experiment: […] isolate Candida albicans assessed as inhibition of microbial growth incubated for 24 hrs by spectrophotometry. In kind it is functional.

Structures are written as SMILES. pIC50: −log10 of the molar value. Non-standard residues stand in square brackets, D forms with d. Residues, ends and D or L forms follow the SMILES beside them. Phe(ol) = N[C@H](CO)Cc1ccccc1; Aib = CC(C)(N)C(=O)O

As usually defined, the pIC50 is the IC50 on a negative log10 scale, so that one unit is a factor of ten. Usually MIC stands for the lowest concentration found to suppress growth. Take `CC[C@@](C)(NC(=O)[C@H](CCC(N)=O)NC(=O)C(C)(C)NC(=O)[C@H](CC(C)C)NC(=O)[C@H](C)NC(=O)CNC(=O)C(C)(C)NC(C)=O)C(=O)N[C@@H](CC(C)C)C(=O)NC(C)(C)C(=O)N[C@@H](C)C(=O)NC(C)(C)C(=O)NC(C)(C)C(=O)NC(C)(C)C(=O)N[C@@H](CCC(N)=O)C(=O)N[C@H](CO)Cc1ccccc1`: the pIC50 in the experiment on KB was 6.10. Also, the MIC in the experiment with Staphylococcus aureus, in the experiment with Escherichia coli and in the experiment with Candida albicans was above 100 µg/mL in each case.

For the compound `CC[C@@](C)(NC(=O)[C@H](CCC(N)=O)NC(=O)C(C)(C)NC(=O)[C@H](CC(C)C)NC(=O)[C@H](C)NC(=O)CNC(=O)C(C)(C)NC(C)=O)C(=O)N[C@H](C(=O)NC(C)(C)C(=O)N[C@@H](C)C(=O)NC(C)(C)C(=O)NC(C)(C)C(=O)NC(C)(C)C(=O)N[C@@H](CCC(N)=O)C(=O)N[C@H](CO)Cc1ccccc1)C(C)C`, the pIC50 in the experiment with KB is 6.10. The MIC in the experiment on Staphylococcus aureus was 25 µg/mL; in the experiment with Escherichia coli it was above 100 µg/mL; in the experiment on Candida albicans, above 100 µg/mL.

As for `CC(=O)NC(C)(C)C(=O)N1CCC[C@H]1C(=O)NC(C)(C)C(=O)N[C@@H](C)C(=O)NC(C)(C)C(=O)N[C@@H](C)C(=O)N[C@@H](CCC(N)=O)C(=O)NC(C)(C)C(=O)N[C@H](C(=O)NC(C)(C)C(=O)NCC(=O)N[C@@H](CC(C)C)C(=O)NC(C)(C)C(=O)N1CCC[C@H]1C(=O)N[C@H](C(=O)NC(C)(C)C(=O)NC(C)(C)C(=O)N[C@H](CCC(N)=O)C(=O)N[C@H](CCC(N)=O)C(=O)N[C@H](CO)Cc1ccccc1)C(C)C)C(C)C`, the negative-log IC50 (pIC50) in the experiment with KB was 5.05.

Consider `CC[C@@](C)(NC(=O)[C@H](CC(C)C)NC(=O)[C@H](C)NC(=O)CNC(=O)C(C)(C)NC(C)=O)C(=O)N[C@@H](CCC(N)=O)C(=O)N[C@](C)(CC)C(=O)N[C@H](C(=O)NC(C)(C)C(=O)N[C@@H](C)C(=O)NC(C)(C)C(=O)NC(C)(C)C(=O)NC(C)(C)C(=O)N[C@@H](CCC(N)=O)C(=O)N[C@H](CO)Cc1ccccc1)C(C)C`, for which, in the experiment on KB, the pIC50 is 6.15. In addition, the values for the MIC in the experiment with Staphylococcus aureus, with Escherichia coli and in the experiment with Candida albicans were 25 µg/mL, above 100 µg/mL and above 100 µg/mL, respectively.

Turning to `CC(=O)NC(C)(C)C(=O)NCC(=O)N[C@@H](C)C(=O)N[C@@H](CC(C)C)C(=O)NC(C)(C)C(=O)N[C@@H](CCC(N)=O)C(=O)NC(C)(C)C(=O)N[C@@H](CC(C)C)C(=O)NC(C)(C)C(=O)N[C@@H](C)C(=O)NC(C)(C)C(=O)NC(C)(C)C(=O)NC(C)(C)C(=O)N[C@@H](CCC(N)=O)C(=O)N[C@H](CO)Cc1ccccc1` (Ac-[Aib]GAL[Aib]Q[Aib]L[Aib]A[Aib][Aib][Aib]Q[Phe(ol)]), the pIC50 in the experiment on KB is 5.37. For the same compound, the MIC with Staphylococcus aureus, in the experiment on Escherichia coli and with Candida albicans was above 100 µg/mL in each case.

In the case of `CC(=O)NC(C)(C)C(=O)NCC(=O)N[C@@H](C)C(=O)N[C@@H](CC(C)C)C(=O)NC(C)(C)C(=O)N[C@@H](CCC(N)=O)C(=O)NC(C)(C)C(=O)N[C@H](C(=O)NC(C)(C)C(=O)N[C@@H](C)C(=O)NC(C)(C)C(=O)NC(C)(C)C(=O)NC(C)(C)C(=O)N[C@@H](CCC(N)=O)C(=O)N[C@H](CO)Cc1ccccc1)C(C)C` (Ac-[Aib]GAL[Aib]Q[Aib]V[Aib]A[Aib][Aib][Aib]Q[Phe(ol)]), the negative-log IC50 (pIC50) in the experiment with KB is 5.62. Further, the MIC in the experiment on Staphylococcus aureus is 25 µg/mL; with Escherichia coli, above 100 µg/mL; with Candida albicans, above 100 µg/mL.
